The numbers were not newly measured in patent US20160361293A1, “NANOSTRUCTURED COMPOSITION COMPRISING INDOMETHACINE, ITS PHARMACEUTICALLY ACCEPTABLE SALTS AND CO-CRYSTALS AND PROCESS FOR THE PREPARATION THEREOF” (DARHOLDING KFT., priority 2014, published 2016), which cites them from elsewhere.

Values after ≈ are worked out from the molar mass of the structure shown.

Experiment in series [1]: not given
This is another data set of the same source.

For series [2] the following is noted: in vivo.

Regarding `COc1ccc2c(c1)c(CC(=O)O)c(C)n2C(=O)c1ccc(Cl)cc1` [Indomethacin, 1-(4-chlorobenzoyl)-5-methoxy-2-methyl-1H-indole-3-acetic acid], under “alcohol, in words”, the solubility in alcohol entry is recorded as “sparingly soluble”. Moreover, the water solubility (water) was 50 µg/mL (≈ 140 µM). Moreover, the solubility in water result (water, in words) was “practically insoluble”. Moreover, in series [1] (neutral or slightly acidic media), the “stability in neutral or slightly acidic media” value is recorded as “stable”. The “stability in strong alkali” value in series [1] (strong alkali) is “decomposes”. Besides, the mean half-life result in series [2] is recorded as “about 4.5 hours”.
